Values of other authors, collected in patent US9533037B2, “Methods for designing and preparing vaccines comprising directed sequence polymer compositions via the directed expansion of epitopes” (Declion Holdings LLC, priority 2007, dated 2017).

System: MBP83-99
Conditions: limited human trials

AKPVVHLFANIVTPRTP
immune reactivity against the peptide: long term immune reactivity | clinical efficacy by evaluation using MRI (multiple sclerosis): clinically ineffective
